Read-outs that look alike come from different tables or passages of the source. Bounds are passed on as bounds.

The source of these data is PMC11694061 (Cancer Research, 2024).

One experiment deals with K562 xenografts. The experiment can be described thus: K562 xenograft. The class given is in vivo. The settings on record: imatinib (100 mg/kg) monotherapy, orally daily. As to the method:
(§1) Animal experiments were carried out following the guidelines of the Institutional Animal Care and Use Committee of Shanghai Institute of Materia Medica, Chinese Academy of Sciences, and Lingang Laboratory. […] All mice were raised till the tumor volumes reached approximately 100 mm^3 and were randomly assigned to either the vehicle or treated groups (n = 5/group). […] Body weights and tumor sizes of mice were recorded every 3 days. Tumor volumes were calculated as follows: ½ × length × width^2. On the final day of the experiment, the mice were euthanized and tumor samples were prepared for Western blot analysis.

Experiment [1] has as its system NCI-H358 cells (KRAS^G12C). The experiment can be described thus: 3D growth inhibition, NCI-H358. Format: cell-based. Particulars: Homo sapiens, NCI-H358, 120 h, read-out: IC50 (3D culture), NCI-H358. As to the method: (§2) Cells were inoculated onto 96-well plates and treated with compounds in serial dilutions for 3 or 5 days. Cell viability was assessed using sulforhodamine B (230162, Sigma-Aldrich) assay and methyl thiazolyl tetrazolium (M5655, Sigma-Aldrich) assay for adherent and suspended cells, respectively, in accordance with previously described methods ([48]). The cell viability of primary patient samples was tested using the CellTiter-Glo Luminescent Assay kit (G7573, Promega) according to the manufacturer’s instructions. Three-dimensional cultivation was conducted in 96-well ultralow attachment plates (7007, Corning). The optical density (OD) values were obtained using a SPARK microplate reader (Tecan). IC50 was calculated using GraphPad Prism 8.0.2 (nonlinear regression analysis with four parameters). Drug synergy was evaluated with combination index (CI) values using CalcuSyn Demo Version 2.0 software. CI > 1 indicates antagonism, CI < 1 indicates synergy, and CI = 1 indicates additivity.

The subject of experiment [2] is HPAF-II cells (KRAS^G12D). The experiment can be described thus: 3D growth inhibition, HPAF-II. Format: cell-based. The settings on record: Homo sapiens, 120 h, read-out: IC50 (3D culture), HPAF-II. As to the method:
as §2

Experiment [3] concerns MIA PaCa-2 xenografts (KRAS^G12C). The experiment can be described thus: MIA PaCa-2 xenograft. The class given is in vivo, mouse. Particulars: BI-3406 50 mg/kg twice daily, end of 24-day period. Here is the method:
as §1

Another experiment relates to GP2d cells (KRAS^G12D). Put plainly: 3D growth inhibition, GP2d. Format: cell-based. Particulars: Homo sapiens, 120 h, read-out: IC50 (3D culture), GP2d. As to the method:
as §2

Another experiment relates to BxPC-3 cells (KRAS-WT). Put plainly: 3D growth inhibition, BxPC-3. Format: cell-based. The settings on record: Homo sapiens, BXPC-3, 120 h, read-out: IC50 (3D culture), BxPC-3. Here is the method: as §2
The subject of another experiment is 293T cells (KRAS-WT). Put plainly: 3D growth inhibition, 293T. The class given is cell-based. The settings on record: Homo sapiens, HEK-293T, 120 h, read-out: IC50 (3D culture), 293T. As to the method:
as §2

The next experiment concerns SW620 cells (G12V). Put plainly: 3D growth inhibition, SW620. Format: cell-based. Particulars: Homo sapiens, SW-620, 120 h, read-out: IC50 (3D culture), SW620. Here is the method:
as §2

The subject of the next experiment is K562 cells. Put plainly: Proliferation, K562. Format: cell-based, human. The settings on record: Homo sapiens. Here is the method:
as §2, with “Cell viability was assessed using sulforhodamine B (230162, Sigma-Aldrich) assay and methyl thiazolyl tetrazolium (M5655, Sigma-Aldrich) assay for adherent and suspended cells, respectively, in accordance with previously described methods ([48]).” left out, “Three-dimensional cultivation was conducted in 96-well ultralow attachment plates (7007, Corning).” left out

A further experiment deals with T1, SOS1 in K562 cells (Homo sapiens, UniProt Q07889).
T1 construct: endogenous in cells; host or cells: K562
T1 sequence (Q07889 1-1333): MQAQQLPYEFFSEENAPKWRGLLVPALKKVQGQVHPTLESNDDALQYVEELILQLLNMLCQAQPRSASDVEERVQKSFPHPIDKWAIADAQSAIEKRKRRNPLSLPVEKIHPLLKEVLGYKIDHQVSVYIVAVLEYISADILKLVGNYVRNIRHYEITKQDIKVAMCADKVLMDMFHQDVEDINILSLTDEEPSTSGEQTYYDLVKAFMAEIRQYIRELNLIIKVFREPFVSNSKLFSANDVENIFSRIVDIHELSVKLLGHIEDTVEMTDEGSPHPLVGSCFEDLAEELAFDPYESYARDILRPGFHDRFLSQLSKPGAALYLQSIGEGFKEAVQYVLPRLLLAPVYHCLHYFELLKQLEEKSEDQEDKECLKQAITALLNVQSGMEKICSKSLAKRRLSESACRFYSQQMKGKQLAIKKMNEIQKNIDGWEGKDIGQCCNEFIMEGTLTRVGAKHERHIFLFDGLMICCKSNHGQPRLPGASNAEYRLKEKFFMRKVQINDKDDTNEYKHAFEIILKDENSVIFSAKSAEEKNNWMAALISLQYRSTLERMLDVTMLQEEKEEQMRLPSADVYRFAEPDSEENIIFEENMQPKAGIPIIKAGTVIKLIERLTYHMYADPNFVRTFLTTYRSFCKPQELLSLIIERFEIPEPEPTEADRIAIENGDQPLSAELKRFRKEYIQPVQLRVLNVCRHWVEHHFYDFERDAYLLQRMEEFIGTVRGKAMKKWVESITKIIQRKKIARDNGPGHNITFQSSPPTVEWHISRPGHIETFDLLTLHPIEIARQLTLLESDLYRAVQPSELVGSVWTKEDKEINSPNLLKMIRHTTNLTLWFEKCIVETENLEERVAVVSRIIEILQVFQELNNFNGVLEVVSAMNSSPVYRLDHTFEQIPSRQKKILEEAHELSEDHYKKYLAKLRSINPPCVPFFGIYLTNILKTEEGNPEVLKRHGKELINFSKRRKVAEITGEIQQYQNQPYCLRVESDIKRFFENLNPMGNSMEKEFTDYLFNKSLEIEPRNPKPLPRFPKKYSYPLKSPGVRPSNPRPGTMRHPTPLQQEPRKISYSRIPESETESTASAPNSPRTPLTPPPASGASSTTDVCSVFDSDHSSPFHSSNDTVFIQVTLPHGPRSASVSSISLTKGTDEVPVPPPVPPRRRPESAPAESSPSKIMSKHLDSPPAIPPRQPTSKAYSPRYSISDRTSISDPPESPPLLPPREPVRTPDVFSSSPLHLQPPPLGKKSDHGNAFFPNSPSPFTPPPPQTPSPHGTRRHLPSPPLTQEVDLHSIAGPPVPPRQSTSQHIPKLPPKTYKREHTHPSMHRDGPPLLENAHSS
The experiment can be described thus: SOS1 degradation in K562 cells (Western blot). The class given is cell-based. The text has this: After treatment, the cells were harvested with SDS lysis buffer, and SDS-PAGE gels were used to split the proteins in the lysate solutions. […] AB_2758039).

For a further experiment, the system named is MIA PaCa-2/R cells. Put plainly: Proliferation, MIA PaCa-2/R (2D). Format: cell-based. Particulars: Homo sapiens, MIA PaCa-2/R (AMG510-resistant), 72 hours. As to the method: as §2, with “Cell viability was assessed using sulforhodamine B (230162, Sigma-Aldrich) assay and methyl thiazolyl tetrazolium (M5655, Sigma-Aldrich) assay for adherent and suspended cells, respectively, in accordance with previously described methods ([48]).” left out, “Three-dimensional cultivation was conducted in 96-well ultralow attachment plates (7007, Corning).” left out

The test system of another experiment is MIA PaCa-2 cells. The experiment can be described thus: Proliferation, MIA PaCa-2 (2D). The class given is cell-based. Particulars: Homo sapiens, MIA PaCa-2, 72 hours. Here is the method: as §2, with “Cell viability was assessed using sulforhodamine B (230162, Sigma-Aldrich) assay and methyl thiazolyl tetrazolium (M5655, Sigma-Aldrich) assay for adherent and suspended cells, respectively, in accordance with previously described methods ([48]).” left out, “Three-dimensional cultivation was conducted in 96-well ultralow attachment plates (7007, Corning).” left out

Setting [4] is: K562, Table S1 screening, read-out: IC50 (cell proliferation inhibition in K562 cells).

`Cc1ccc(NC(=O)c2ccc(CN3CCN(C)CC3)cc2)cc1Nc1nccc(-c2cccnc2)n1` [imatinib] yielded a TGI in the experiment with K562 xenografts of 50.9%.
Turning to `COc1cc2nc(C)nc(N[C@H](C)c3cc(N)cc(C(F)(F)F)c3)c2cc1O[C@H]1CCOC1` [BI-3406], the IC50 is 11 nM in [1]; 61.9 nM in experiment [2]; 4.1 nM with GP2d cells (KRAS^G12D); 692 nM in the experiment on BxPC-3 cells (KRAS-WT); over 10000 nM in the experiment with 293T cells (KRAS-WT); 18 nM in the experiment on SW620 cells (G12V). In the experiment with K562 cells (K562, read-out: IC50 (cell proliferation inhibition in K562 cells)), the IC50 stood at 199 ± 32 nM. The compound further yielded a tumor growth inhibition in experiment [3] of 62.0%.
As to `COc1cc2nc(C)nc(N[C@H](C)c3cc(N)cc(C(F)(F)F)c3)c2cc1O[C@H]1CCN(C(=O)CCCCCCCCCCCSc2cccc3c2CN(C2CCC(=O)NC2=O)C3=O)C1` (some centres unmarked) [SIAIS562082], on SOS1 in K562 cells, the percent SOS1 degradation at 0.1 µM came to 21.3 ± 0.5% and the percent SOS1 degradation at 1 µM turned out to be 71 ± 1.6%. Besides, in the experiment with K562 cells (setting [4]), the IC50 is 4680 ± 1210 nM.
`C=CC(=O)N1CCN(c2nc(=O)n(-c3c(C)ccnc3C(C)C)c3nc(-c4c(O)cccc4F)c(F)cc23)[C@@H](C)C1` [AMG510, sotorasib]: the IC50 with MIA PaCa-2/R cells was determined as 590000 nM; in the experiment with MIA PaCa-2 cells, 25 nM.
For the compound `COc1cc2nc(C)nc(N[C@H](C)c3cc(N)cc(C(F)(F)F)c3)c2cc1O[C@H]1CCN(C(=O)CCCCCCCSc2cccc3c2CN(C2CCC(=O)NC2=O)C3=O)C1` (some centres unmarked) [SIAIS561096], at SOS1 in K562 cells, the percent SOS1 degradation at 0.1 µM was 57.2 ± 0.7% and the percent SOS1 degradation at 1 µM came out at 49.7 ± 0.9%. The IC50 in the experiment with K562 cells (setting [4]) is 1550 ± 71.4 nM.
On the same counts, the results for `COc1cc2nc(C)nc(N[C@H](C)c3cc(N)cc(C(F)(F)F)c3)c2cc1OC1CCN(C(=O)CCCSc2cccc3c2CN(C2CCC(=O)NC2=O)C3=O)CC1` (some centres unmarked) [SIAIS561133] are -26.7 ± 1.7%, -4 ± 11.7% and 1670 ± 17.7 nM.
